Measured values as given in patent US4415558A, “CRF And analogs” (The Salk Institute for Biological Studies, priority 1982, dated 1983).
Where a SMILES comes first, the peptide text is derived from it. [ ]: non-standard residue; d: D form. The star is where a group is joined. Nle = CCCC[C@H](N)C(=O)O; Bz = O=C(c1ccccc1)*

Key:
[1] = system: cultured rat pituitary cells; test: Secretion of ACTH and β-endorphin by cultured rat pituitary cells; assay type: cell-based; conditions: for Stimulation of secretion of ACTH and β-END-LI (in words): general procedure set forth in Example III, in vitro or in vivo not specified
Description: (§1) The synthetic and the natural CRF were examined for their effects on the secretion of ACTH and β-endorphin in vitro and the synthetic CRF was also examined in vivo. The high potency of synthetic and natural CRF to stimulate the secretion of ACTH and β-endorphin by cultured rat pituitary cells was measured. […] The secretory response to maximal (>5 nM) concentrations of CRF is at a plateau level. In vivo doses from 30 ng to 3 μg/Kg of body weight rapidly elevated ACTH and β-endorphin-like (β-END-LI) secretions 5-20 fold.

[2] = system: ACTH and β-END-LI secretion; test: ACTH and β-END-LI secretion in vivo in rat preparations; conditions: in vivo
Description: as §1
(§2) Plasma levels of ACTH and β-END-LI are elevated for at least 5-20 minutes following the intravenous administration of CRF to nembutal-anesthesized male rats and to quiescent male or female rats with indwelling intravenous cannulae. […] Mean cartoid blood pressure in a urethane-anesthesized rat fell from 87 to 72±2 mm Hg and remained at that level for 30 minutes following an injection equal to 3 μg CRF/Kg body weight; the subsequent administration of an injection equal to 30 μg CRF/Kg body weight lowered mean blood pressure to 42±3 mm Hg for more than 2 hours.

[3] = Blood pressure in rats (mean carotid blood pressure, urethane-anesthetized rat); assay type: in vivo; conditions: general procedure set forth in Example III
Description: as §2

[4] = cited from earlier work
[5] = system: secretion of ACTH and β-endorphin; conditions: cited from earlier work

Compound	Stimulation of secretion of ACTH and β-END-LI (in words) [1]	Lowering of blood pressure (in words) [3]	also measured
CC[C@H](C)[C@H](NC(=O)[C@H](CC(=O)O)NC(=O)[C@H](CC(C)C)NC(=O)[C@H](CC(C)C)NC(=O)[C@H](CCCCN)NC(=O)[C@H](CCCNC(=N)N)NC(=O)[C@H](CC(N)=O)NC(=O)[C@H](CO)NC(=O)[C@H](Cc1c[nH]cn1)NC(=O)[C@H](C)NC(=O)[C@H](CCC(N)=O)NC(=O)[C@H](CCC(N)=O)NC(=O)[C@H](C)NC(=O)[C@H](CC(C)C)NC(=O)[C@H](CCC(N)=O)NC(=O)[C@H](CC(=O)O)NC(=O)[C@H](C)NC(=O)[C@H](CCCCN)NC(=O)[C@@H](NC(=O)[C@H](CCSC)NC(=O)[C@H](CCC(=O)O)NC(=O)[C@H](CC(C)C)NC(=O)[C@@H](NC(=O)[C@H](CCC(=O)O)NC(=O)[C@H](CCCNC(=N)N)NC(=O)[C@H](CC(C)C)NC(=O)[C@H](CC(C)C)NC(=O)[C@H](Cc1c[nH]cn1)NC(=O)[C@H](Cc1ccccc1)NC(=O)[C@@H](NC(=O)[C@H](CC(C)C)NC(=O)[C@H](CC(=O)O)NC(=O)[C@H](CC(C)C)NC(=O)[C@H](CO)NC(=O)[C@@H](NC(=O)[C@@H]1CCCN1C(=O)[C@@H]1CCCN1C(=O)[C@H](CCC(=O)O)NC(=O)[C@H](CCC(N)=O)NC(=O)[C@@H](N)CO)[C@@H](C)CC)[C@@H](C)O)C(C)C)[C@@H](C)O)C(=O)N[C@@H](C)C(N)=O [natural CRF]			Stimulation of ACTH and β-endorphin secretion in vitro (in words) [1]: high potency; Stimulation of ACTH and β-endorphin secretion in vitro (in words) ([1]; listed as isolated CRF): stimulate ACTH and β-endorphin activies; Stimulation of ACTH and β-END-LI secretion in vivo (in words) [2]: stimulate ACTH and β-endorphin activies
H-SQEPPISLDLTFHLLREVLEATKADQLAQQAHTNRKLLDI[Nle]-NH2 [[Ala^21, Thr^33, Nle^41]-CRF]	stimulates the secretion of ACTH and β-END-LI	very significant lowering of blood pressure	
CC[C@H](C)[C@H](NC(=O)[C@H](CC(=O)O)NC(=O)[C@H](CC(C)C)NC(=O)[C@H](CC(C)C)NC(=O)[C@H](CCCCN)NC(=O)[C@H](CCCNC(=N)N)NC(=O)[C@H](CC(N)=O)NC(=O)[C@H](CO)NC(=O)[C@H](Cc1c[nH]cn1)NC(=O)[C@H](C)NC(=O)[C@H](CCC(N)=O)NC(=O)[C@H](CCC(N)=O)NC(=O)[C@H](C)NC(=O)[C@H](CC(C)C)NC(=O)[C@H](CCC(N)=O)NC(=O)[C@H](CC(=O)O)NC(=O)[C@H](C)NC(=O)[C@H](CCCCN)NC(=O)[C@@H](NC(=O)[C@H](CCSC)NC(=O)[C@H](CCC(=O)O)NC(=O)[C@H](CC(C)C)NC(=O)[C@@H](NC(=O)[C@H](CCC(=O)O)NC(=O)[C@H](CCCNC(=N)N)NC(=O)[C@H](CC(C)C)NC(=O)[C@H](CC(C)C)NC(=O)[C@H](Cc1c[nH]cn1)NC(=O)[C@H](CC(C)C)NC(=O)[C@@H](NC(=O)[C@H](CC(C)C)NC(=O)[C@H](CC(=O)O)NC(=O)[C@H](CC(C)C)NC(=O)[C@H](CO)NC(=O)[C@@H](NC(=O)[C@@H]1CCCN1C(=O)[C@@H]1CCCN1C(=O)[C@H](CCC(=O)O)NC(=O)[C@H](C)NC(=O)c1ccccc1)[C@@H](C)CC)[C@@H](C)O)C(C)C)[C@@H](C)O)C(=O)N[C@@H](C)C(N)=O [[Benzoyl-Ala^1, des Gln^2, Leu^12]-CRF] (Bz-AEPPISLDLTLHLLREVLEMTKADQLAQQAHSNRKLLDIA-NH2)	stimulates the secretion of ACTH and β-END-LI	very significant lowering of blood pressure	
CC[C@H](C)[C@H](NC(=O)[C@@H](NC(=O)[C@H](CC(=O)O)NC(=O)[C@H](CC(C)C)NC(=O)[C@H](CC(C)C)NC(=O)[C@H](CC(C)C)NC(=O)[C@H](CCCNC(=N)N)NC(=O)[C@H](CC(N)=O)NC(=O)[C@H](CC(N)=O)NC(=O)[C@H](C)NC(=O)[C@H](C)NC(=O)[C@H](CCC(N)=O)NC(=O)[C@H](CCC(N)=O)NC(=O)[C@H](CCCCN)NC(=O)[C@H](CCC(=O)O)NC(=O)[C@H](CCCCN)NC(=O)[C@H](CCC(=O)O)NC(=O)[C@H](CCC(N)=O)NC(=O)[C@H](CCCCN)NC(=O)[C@H](CCC(=O)O)NC(=O)[C@@H](NC(=O)[C@H](CCC(=O)O)NC(=O)[C@@H](NC(=O)[C@H](CCSC)NC(=O)[C@H](CCCCN)NC(=O)[C@H](CCCNC(=N)N)NC(=O)[C@H](CC(C)C)NC(=O)[C@H](CC(C)C)NC(=O)[C@H](CCC(=O)O)NC(=O)[C@H](CC(C)C)NC(=O)[C@H](CO)NC(=O)[C@H](CC(C)C)NC(=O)[C@H](CC(=O)O)NC(=O)[C@@H](NC(=O)[C@H](CO)NC(=O)[C@@H](NC(=O)[C@@H]1CCCN1C(=O)[C@@H]1CCCN1C(=O)CNC(=O)[C@@H]1CCC(=O)N1)[C@@H](C)CC)[C@@H](C)CC)[C@@H](C)CC)[C@@H](C)CC)[C@@H](C)O)C(N)=O [Sauvagine]			Lowering blood pressure in mammals (reported) [4]: lowering blood pressure in mammals; Stimulating the secretion of ACTH and β-endorphin (reported) [5]: stimulating the secretion of ACTH and β-endorphin
H-SQEPPISLDLTFHLLREVIEMTKAEQLAQQAHSNRKLLDIA-NH2 [[Ile^19, Glu^25]-CRF]	stimulates the secretion of ACTH and β-END-LI	very significant lowering of blood pressure	
CC[C@H](C)[C@H](NC(=O)[C@H](CC(=O)O)NC(=O)[C@H](CC(C)C)NC(=O)[C@H](CC(C)C)NC(=O)[C@H](CCCCN)NC(=O)[C@H](CCCNC(=N)N)NC(=O)[C@H](CC(N)=O)NC(=O)[C@H](CO)NC(=O)[C@H](Cc1c[nH]cn1)NC(=O)[C@H](C)NC(=O)[C@H](CCC(N)=O)NC(=O)[C@H](CCC(N)=O)NC(=O)[C@H](C)NC(=O)[C@H](CC(C)C)NC(=O)[C@H](CCC(N)=O)NC(=O)[C@H](CC(=O)O)NC(=O)[C@H](C)NC(=O)[C@H](CCCCN)NC(=O)[C@@H](NC(=O)[C@H](CCSC)NC(=O)[C@H](CCC(=O)O)NC(=O)[C@H](CC(C)C)NC(=O)[C@@H](NC(=O)[C@H](CCC(=O)O)NC(=O)[C@H](CCCNC(=N)N)NC(=O)[C@H](CC(C)C)NC(=O)[C@H](CC(C)C)NC(=O)[C@H](Cc1c[nH]cn1)NC(=O)[C@H](Cc1ccccc1)NC(=O)[C@@H](NC(=O)[C@H](CC(C)C)NC(=O)[C@H](CC(=O)O)NC(=O)[C@H](CC(C)C)NC(=O)[C@H](CO)NC(=O)[C@@H](NC(=O)[C@@H]1CCCN1C(=O)[C@@H]1CCCN1)[C@@H](C)CC)[C@@H](C)O)C(C)C)[C@@H](C)O)C(=O)N[C@@H](C)C(N)=O [[des Ser^1 -Gln^2 -Glu^3]-CRF]	stimulates the secretion of ACTH and β-END-LI	very significant lowering of blood pressure	
